Test results from publication PMC5218480 (PLoS ONE, 2017).

Tested on: MV-4-11 cells
Experiment: Gene expression microarray analysis (Affymetrix PrimeView) and GSEA
Format: cell-based, human
Parameters: RFU PODN (11730768_x_at) / Fold change /veh PODN (11730768_x_at) / RFU LINC00158 (11744669_a_at) / Fold change /veh LINC00158 (11744669_a_at) / RFU DUSP10 (11751237_a_at) / Fold change /veh DUSP10 (11751237_a_at) / RFU ID3 (11757404_x_at) / Fold change /veh ID3 (11757404_x_at) / RFU PLEKHG5 (11737974_s_at) / Fold change /veh PLEKHG5 (11737974_s_at) / RFU LRRC4B (11730491_at) / Fold change /veh LRRC4B (11730491_at) / RFU GIMAP4 (11747438_a_at) / Fold change /veh GIMAP4 (11747438_a_at) / RFU KRT8 (11758183_x_at) / Fold change /veh KRT8 (11758183_x_at) / RFU CNN1 (11734310_a_at) / Fold change /veh CNN1 (11734310_a_at) / RFU VPS37D (11726825_at) / Fold change /veh VPS37D (11726825_at) / RFU C10orf10 (11716522_x_at) / Fold change /veh C10orf10 (11716522_x_at) / RFU KIR2DL2 /// KIR2DL4 /// KIR2DL5A /// KIR2DL5B /// KIR2DS1 /// KIR2DS2 /// KIR2DS3 /// KIR2DS4 /// KIR3DL3 /// KIR3DL3 /// KIR3DS1 (11738374_at) / Fold change /veh KIR2DL2 /// KIR2DL4 /// KIR2DL5A /// KIR2DL5B /// KIR2DS1 /// KIR2DS2 /// KIR2DS3 /// KIR2DS4 /// KIR3DL3 /// KIR3DL3 /// KIR3DS1 (11738374_at) / RFU C1QL1 (11718748_at) / Fold change /veh C1QL1 (11718748_at) / RFU TMPRSS4 (11747572_a_at) / Fold change /veh TMPRSS4 (11747572_a_at) / RFU HAMP (11756126_x_at) / Fold change /veh HAMP (11756126_x_at) / RFU RNFT2 (11725882_a_at) / Fold change /veh RNFT2 (11725882_a_at) / RFU NR4A2 (11747474_a_at) / Fold change /veh NR4A2 (11747474_a_at) / RFU ABCC12 (11746883_a_at) / Fold change /veh ABCC12 (11746883_a_at) / RFU TMEM136 (11760407_x_at) / Fold change /veh TMEM136 (11760407_x_at) / RFU CLDN22 /// WWC2 (11732394_at) / Fold change /veh CLDN22 /// WWC2 (11732394_at) / RFU HLA-DPB1 (11760878_x_at) / Fold change /veh HLA-DPB1 (11760878_x_at) / RFU SPINT1 (11716480_a_at) / Fold change /veh SPINT1 (11716480_a_at) / RFU GAP43 (11754022_s_at) / Fold change /veh GAP43 (11754022_s_at) / RFU A4GNT (11735810_at) / Fold change /veh A4GNT (11735810_at) / RFU PRB3 (11715151_x_at) / Fold change /veh PRB3 (11715151_x_at) / RFU TUBB4B (11761932_at) / Fold change /veh TUBB4B (11761932_at) / RFU CAPN14 (11732068_a_at) / Fold change /veh CAPN14 (11732068_a_at) / RFU TMCC2 (11721928_a_at) / Fold change /veh TMCC2 (11721928_a_at) / RFU IRGQ (11745062_a_at) / Fold change /veh IRGQ (11745062_a_at) / RFU FAM174B (11720279_a_at) / Fold change /veh FAM174B (11720279_a_at) / RFU TMPRSS4 (11748680_a_at) / Fold change /veh TMPRSS4 (11748680_a_at) / RFU FAM212B (11763350_a_at) / Fold change /veh FAM212B (11763350_a_at) / RFU PLEKHG5 (11743358_a_at) / Fold change /veh PLEKHG5 (11743358_a_at) / RFU ZSCAN30 (11745921_a_at) / Fold change /veh ZSCAN30 (11745921_a_at) / RFU CMKLR1 (11741424_a_at) / Fold change /veh CMKLR1 (11741424_a_at) / RFU LOC101060620 /// MAPK8IP1 (11723275_at) / Fold change /veh LOC101060620 /// MAPK8IP1 (11723275_at) / RFU SPTSSB (11747773_x_at) / Fold change /veh SPTSSB (11747773_x_at) / RFU PRSS12 (11739890_at) / Fold change /veh PRSS12 (11739890_at) / RFU BIN1 (11741810_x_at) / Fold change /veh BIN1 (11741810_x_at) / RFU WNT11 (11732464_a_at) / Fold change /veh WNT11 (11732464_a_at) / RFU C10orf10 (11716521_a_at) / Fold change /veh C10orf10 (11716521_a_at) / RFU C5orf56 (11738089_at) / Fold change /veh C5orf56 (11738089_at) / RFU CYB561 (11721691_x_at) / Fold change /veh CYB561 (11721691_x_at) / RFU ANKRD19P (11752326_a_at) / Fold change /veh ANKRD19P (11752326_a_at) / RFU OR2T12 /// OR2T33 /// OR2T8 (11738714_s_at) / Fold change /veh OR2T12 /// OR2T33 /// OR2T8 (11738714_s_at) / RFU VCAN (11748164_a_at) / Fold change /veh VCAN (11748164_a_at) / RFU JSRP1 (11732532_at) / Fold change /veh JSRP1 (11732532_at) / RFU KRTAP10-11 (11738290_x_at) / Fold change /veh KRTAP10-11 (11738290_x_at) / RFU MYO3A (11730013_a_at) / Fold change /veh MYO3A (11730013_a_at) / RFU EBF3 (11725865_a_at) / Fold change /veh EBF3 (11725865_a_at) / RFU CAMK2N1 (11719241_x_at) / Fold change /veh CAMK2N1 (11719241_x_at) / RFU C5orf56 (11738088_a_at) / Fold change /veh C5orf56 (11738088_a_at) / RFU OLFML3 (11715873_a_at) / Fold change /veh OLFML3 (11715873_a_at) / RFU LOC100653217 /// NTM (11731650_a_at) / Fold change /veh LOC100653217 /// NTM (11731650_a_at) / RFU MAPK11 (11762145_a_at) / Fold change /veh MAPK11 (11762145_a_at) / RFU FIZ1 (11724087_x_at) / Fold change /veh FIZ1 (11724087_x_at) / RFU OASL (11726364_x_at) / Fold change /veh OASL (11726364_x_at) / RFU SOX15 (11748057_x_at) / Fold change /veh SOX15 (11748057_x_at) / RFU CD79A (11719716_a_at) / Fold change /veh CD79A (11719716_a_at) / RFU HIST1H1D (11736915_at) / Fold change /veh HIST1H1D (11736915_at) / RFU CASKIN2 (11723855_a_at) / Fold change /veh CASKIN2 (11723855_a_at) / RFU LOC730098 (11760151_x_at) / Fold change /veh LOC730098 (11760151_x_at) / RFU OR4N2 (11742367_at) / Fold change /veh OR4N2 (11742367_at) / RFU PRRT2 (11749266_a_at) / Fold change /veh PRRT2 (11749266_a_at) / RFU SNX32 (11753110_a_at) / Fold change /veh SNX32 (11753110_a_at) / RFU CDHR5 (11726645_a_at) / Fold change /veh CDHR5 (11726645_a_at) / RFU RCAN1 (11760418_a_at) / Fold change /veh RCAN1 (11760418_a_at) / RFU FAM167A (11723789_a_at) / Fold change /veh FAM167A (11723789_a_at) / RFU FAM26E (11764081_at) / Fold change /veh FAM26E (11764081_at) / RFU ISYNA1 (11749810_s_at) / Fold change /veh ISYNA1 (11749810_s_at) / RFU ACY1 (11761880_at) / Fold change /veh ACY1 (11761880_at) / RFU 11764098_at / Fold change /veh 11764098_at / RFU SAMD14 (11745864_x_at) / Fold change /veh SAMD14 (11745864_x_at) / RFU NPB (11741838_a_at) / Fold change /veh NPB (11741838_a_at) / RFU TMPRSS6 (11731388_a_at) / Fold change /veh TMPRSS6 (11731388_a_at) / RFU KRTAP10-2 (11738614_at) / Fold change /veh KRTAP10-2 (11738614_at) / RFU ARHGAP8 /// PRR5-ARHGAP8 (11727945_x_at) / Fold change /veh ARHGAP8 /// PRR5-ARHGAP8 (11727945_x_at) / RFU KRTAP5-7 /// NADSYN1 (11734609_at) / Fold change /veh KRTAP5-7 /// NADSYN1 (11734609_at) / RFU RASL12 (11751679_a_at) / Fold change /veh RASL12 (11751679_a_at) / RFU CDKN2B (11736163_a_at) / Fold change /veh CDKN2B (11736163_a_at) / RFU PRF1 (11729649_at) / Fold change /veh PRF1 (11729649_at) / RFU, ZNF638 /// ZNF638-IT1 / Fold change vs veh, ZNF638 /// ZNF638-IT1 / RFU, PANK3 / Fold change vs veh, PANK3 / RFU, SH3YL1 / Fold change vs veh, SH3YL1 / RFU, ZEB2 / Fold change vs veh, ZEB2 / RFU, NRIP1 / Fold change vs veh, NRIP1 / RFU, PTTG1IP / Fold change vs veh, PTTG1IP / RFU, CAPN2 / Fold change vs veh, CAPN2 / RFU, MED14 / Fold change vs veh, MED14 / RFU, SNORA58 / Fold change vs veh, SNORA58 / RFU, C1orf63 / Fold change vs veh, C1orf63 / RFU, LRRFIP1 / Fold change vs veh, LRRFIP1 / RFU, NDUFAF7 / Fold change vs veh, NDUFAF7 / RFU, SLC12A2 / Fold change vs veh, SLC12A2 / RFU, IBTK / Fold change vs veh, IBTK / RFU, ESF1 / Fold change vs veh, ESF1 / Fold change vs veh, TMEM50B / RFU, TAOK1 / Fold change vs veh, TAOK1 / RFU, ACBD3 / Fold change vs veh, ACBD3 / RFU, TMA16 / Fold change vs veh, TMA16 / RFU, RWDD3 / Fold change vs veh, RWDD3 / RFU, BCAT1 / Fold change vs veh, BCAT1 / RFU, EDEM3 / Fold change vs veh, EDEM3 / RFU, TMEM33 / Fold change vs veh, TMEM33 / RFU, WDR75 / Fold change vs veh, WDR75 / RFU, AHCTF1 / Fold change vs veh, AHCTF1 / RFU, TFRC / Fold change vs veh, TFRC / RFU, ZDHHC17 / Fold change vs veh, ZDHHC17 / RFU, NOM1 / Fold change vs veh, NOM1 / RFU, ARL8B / Fold change vs veh, ARL8B / RFU, ZBTB11 / Fold change vs veh, ZBTB11 / RFU, TAMM41 / Fold change vs veh, TAMM41 / RFU, KIAA1704 /// LOC100996395 / Fold change vs veh, KIAA1704 /// LOC100996395 / RFU, ING1 / Fold change vs veh, ING1 / RFU, TRMT61B / Fold change vs veh, TRMT61B / RFU, FUBP3 / Fold change vs veh, FUBP3 / RFU, TP53 / Fold change vs veh, TP53 / RFU, TNKS2 / Fold change vs veh, TNKS2 / RFU, ZFP14 / Fold change vs veh, ZFP14 / RFU, ACTR2 / Fold change vs veh, ACTR2 / RFU, PPP3R1 / Fold change vs veh, PPP3R1 / RFU, PIK3R1 / Fold change vs veh, PIK3R1 / RFU, HNRNPA1 / Fold change vs veh, HNRNPA1 / RFU, RNF170 / Fold change vs veh, RNF170 / RFU, ZNF28 / Fold change vs veh, ZNF28 / RFU, RNGTT / Fold change vs veh, RNGTT / RFU, OGT / Fold change vs veh, OGT / RFU, BRD1 / Fold change vs veh, BRD1 / RFU, MARS / Fold change vs veh, MARS / RFU, ZNF655 / Fold change vs veh, ZNF655 / RFU, FAHD1 / Fold change vs veh, FAHD1 / RFU, BDP1 / Fold change vs veh, BDP1 / RFU, LRRCC1 / Fold change vs veh, LRRCC1 / RFU, ARID1A / Fold change vs veh, ARID1A / RFU, ZNF146 / Fold change vs veh, ZNF146 / RFU, ZNF330 / Fold change vs veh, ZNF330 / RFU, GPN3 / Fold change vs veh, GPN3 / RFU, C9orf123 / Fold change vs veh, C9orf123 / RFU, N4BP2L2 / Fold change vs veh, N4BP2L2 / RFU, ARFIP1 / Fold change vs veh, ARFIP1 / RFU, FAM179B / Fold change vs veh, FAM179B / RFU, BCL10 / Fold change vs veh, BCL10 / RFU, UHRF1BP1L / Fold change vs veh, UHRF1BP1L / RFU, BET1 / Fold change vs veh, BET1 / RFU, CNOT2 / Fold change vs veh, CNOT2 / RFU, ZNF268 / Fold change vs veh, ZNF268 / Fold change vs veh, ZNF507 / RFU, DGCR2 / Fold change vs veh, DGCR2 / RFU, WDSUB1 / Fold change vs veh, WDSUB1 / Fold change vs veh, HSP90B1 /// MIR3652 / RFU, ADSS / Fold change vs veh, ADSS / RFU, GK / Fold change vs veh, GK / RFU, ZNF148 / Fold change vs veh, ZNF148 / RFU, TAF9 / Fold change vs veh, TAF9 / RFU, SLC1A5 / Fold change vs veh, SLC1A5 / RFU, SLMO2 / Fold change vs veh, SLMO2 / RFU, ABCC4 / Fold change vs veh, ABCC4 / RFU, LOC101060439 /// RAP1B / Fold change vs veh, LOC101060439 /// RAP1B / RFU, RFX7 / Fold change vs veh, RFX7 / RFU, GTPBP10 / Fold change vs veh, GTPBP10 / RFU, CNEP1R1 / Fold change vs veh, CNEP1R1 / RFU, BIVM-ERCC5 /// ERCC5 / Fold change vs veh, BIVM-ERCC5 /// ERCC5 / RFU, ILF3 / Fold change vs veh, ILF3 / RFU 11762660_at / Fold change /veh 11762660_at / RFU VCAN (11757783_s_at) / Fold change /veh VCAN (11757783_s_at) / RFU DDX43 (11728927_at) / Fold change /veh DDX43 (11728927_at) / RFU KRT8 (11758188_x_at) / Fold change /veh KRT8 (11758188_x_at) / RFU NKD1 (11759106_at) / Fold change /veh NKD1 (11759106_at) / RFU SRD5A1 (11742802_a_at) / Fold change /veh SRD5A1 (11742802_a_at) / RFU TPSAB1 /// TPSB2 (11721975_s_at) / Fold change /veh TPSAB1 /// TPSB2 (11721975_s_at) / RFU GSTM3 (11746129_a_at) / Fold change /veh GSTM3 (11746129_a_at) / RFU IL23R (11737362_x_at) / Fold change /veh IL23R (11737362_x_at) / RFU TMEM51 (11727254_a_at) / Fold change /veh TMEM51 (11727254_a_at) / RFU PIWIL2 (11732686_x_at) / Fold change /veh PIWIL2 (11732686_x_at) / RFU ORM1 (11744905_x_at) / Fold change /veh ORM1 (11744905_x_at) / RFU CCDC152 (11743942_at) / Fold change /veh CCDC152 (11743942_at) / RFU ECM1 (11717891_a_at) / Fold change /veh ECM1 (11717891_a_at) / RFU IL23R (11748794_a_at) / Fold change /veh IL23R (11748794_a_at) / RFU TNFAIP8L3 (11732012_x_at) / Fold change /veh TNFAIP8L3 (11732012_x_at) / RFU MBOAT4 (11741988_at) / Fold change /veh MBOAT4 (11741988_at) / RFU 11764193_at / Fold change /veh 11764193_at / RFU TMEM53 (11763286_at) / Fold change /veh TMEM53 (11763286_at) / RFU MAGEB2 (11727129_at) / Fold change /veh MAGEB2 (11727129_at) / RFU TMEM200A (11744735_a_at) / Fold change /veh TMEM200A (11744735_a_at) / RFU CCDC152 (11751479_a_at) / Fold change /veh CCDC152 (11751479_a_at) / RFU FAM211A (11726209_a_at) / Fold change /veh FAM211A (11726209_a_at) / RFU RGS16 (11746705_a_at) / Fold change /veh RGS16 (11746705_a_at) / RFU VCAN (11755009_s_at) / Fold change /veh VCAN (11755009_s_at) / RFU RHOB (11743442_s_at) / Fold change /veh RHOB (11743442_s_at) / RFU RGS16 (11720943_a_at) / Fold change /veh RGS16 (11720943_a_at) / RFU RGS16 (11720944_at) / Fold change /veh RGS16 (11720944_at) / RFU, VPS4B / Fold change vs veh, VPS4B / RFU, CREB1 / Fold change vs veh, CREB1 / RFU, DNAJC13 / Fold change vs veh, DNAJC13 / RFU, GNAQ / Fold change vs veh, GNAQ / RFU, CDK5R1 / Fold change vs veh, CDK5R1 / RFU, ZRANB3 / Fold change vs veh, ZRANB3 / RFU, CUL4A / Fold change vs veh, CUL4A / RFU, CCNY / Fold change vs veh, CCNY / RFU, UFL1 / Fold change vs veh, UFL1 / RFU, COG3 / Fold change vs veh, COG3 / RFU, DIAPH2 / Fold change vs veh, DIAPH2 / RFU, SKA2 / Fold change vs veh, SKA2 / RFU, AFF3 / Fold change vs veh, AFF3 / RFU, LMF1 / Fold change vs veh, LMF1 / RFU, IPO11 / Fold change vs veh, IPO11 / RFU, DFFB / Fold change vs veh, DFFB / RFU, FOXP1 / Fold change vs veh, FOXP1 / RFU, CARD8 / Fold change vs veh, CARD8 / RFU, STRN3 / Fold change vs veh, STRN3 / RFU, ADK / Fold change vs veh, ADK / RFU, RASSF2 / Fold change vs veh, RASSF2 / RFU, WIPF1 / Fold change vs veh, WIPF1 / RFU, LARP1B / Fold change vs veh, LARP1B / RFU, RASA1 / Fold change vs veh, RASA1 / RFU, RB1 / Fold change vs veh, RB1 / RFU, PPFIA1 / Fold change vs veh, PPFIA1 / RFU, MAT2A / Fold change vs veh, MAT2A / RFU, CCT5 / Fold change vs veh, CCT5 / RFU, WDR92 / Fold change vs veh, WDR92 / RFU, CUX1 / Fold change vs veh, CUX1 / RFU, TTC7A / Fold change vs veh, TTC7A / RFU, TMEM135 / Fold change vs veh, TMEM135 / RFU, DEPTOR / Fold change vs veh, DEPTOR / RFU, CPM / Fold change vs veh, CPM / RFU, DNAJB6 / Fold change vs veh, DNAJB6 / RFU, CACNA2D3 / Fold change vs veh, CACNA2D3 / RFU, DTX4 / Fold change vs veh, DTX4 / RFU, TFCP2 / Fold change vs veh, TFCP2 / RFU, GMCL1 /// GMCL1P1 / Fold change vs veh, GMCL1 /// GMCL1P1 / RFU, AEBP2 / Fold change vs veh, AEBP2 / RFU, SNHG1 /// SNORD22 /// SNORD25 /// SNORD26 /// SNORD27 /// SNORD28 /// SNORD29 /// SNORD31 / Fold change vs veh, SNHG1 /// SNORD22 /// SNORD25 /// SNORD26 /// SNORD27 /// SNORD28 /// SNORD29 /// SNORD31 / Fold change (Aza/veh), C12orf56 (ProbeSet 11735607_a_at) / Fold change (ACY-1035/veh), C12orf56 (ProbeSet 11735607_a_at) / Fold change (Aza/veh), FGFR1OP (ProbeSet 11751329_s_at) / Fold change (ACY-1035/veh), FGFR1OP (ProbeSet 11751329_s_at) / Fold change (Aza/veh), VPS36 (ProbeSet 11739960_a_at) / Fold change (ACY-1035/veh), VPS36 (ProbeSet 11739960_a_at) / RFU SYPL1 (11715823_x_at) / Fold change /veh SYPL1 (11715823_x_at) / RFU IGFBP7 (11715501_s_at) / Fold change /veh IGFBP7 (11715501_s_at) / RFU REEP3 (11722064_at) / Fold change /veh REEP3 (11722064_at) / RFU IGLL1 (11728026_x_at) / Fold change /veh IGLL1 (11728026_x_at): dose or concentration left out as unconfirmed
Settings: MV-4-11 cells, 48 hours

`Nc1ncn([C@@H]2O[C@H](CO)[C@@H](O)[C@H]2O)c(=O)n1` [azacitidine] was tested, and the “RFU FIZ1 (11724087_x_at)” value was 32.14 RFU.
